Measurements published in patent publication US5399565A, “Pyrazolidinone CCK and gastrin antagonists and pharmaceutical formulations therof” (priority 1993, dated 1995).
pIC50: −log10 of the molar value.

Experiments:
[1] = Auditory startle response, nicotine withdrawal; type: in vivo, Male Long Evans rats
From the text: (§1) In humans, withdrawal from the chronic administration of benzodiazepines or nicotine can result in a variety of undesirable side-effects, including anxiety. […] Withdrawal from chronic nicotine administration also has anxiogenic effects as indicated by decreased time spent in the light compartment of a light/dark box (Costall et al., Ibid) and increased auditory startle responses. Applicants examined the effects of compounds of this invention on the auditory startle response of rats undergoing withdrawal from the chronic administration of diazepam or nicotine.
(§2) Male Long Evans rats (200-220 g; Harlan Sprague Dawley, Columbus, Ind.) were individually housed in a controlled environment on a 12 hour light-dark cycle and were given free access to food (Purina Rodent Chow) and water. All treatment groups contained 8-10 rats.
(§3) Rats were anesthetized with halothane and Alzet osmotic minipumps (Alza Corporation, Palo Alto, Calif., Model 2ML2) were implanted subcutaneously. Diazepam (Sigma Chemical; St. Louis, Mo.) was suspended in 40% polyethylene glycol, 10% ethanol and Tween 80. Nicotine ditartrate was dissolved in physiological saline. Pumps were filled with either diazepam (20 mg/kg/day), nicotine ditartrate (6 mg/kg base/day), or the appropriate vehicle. Twelve days following implantation of pumps, rats were anesthetized with halothane and the pumps were removed.
(§4) The sensory motor reactions [auditory startle response (peak amplitude, Vmax)]of individual rats was recorded using San Diego Instruments startle chambers (San Diego, Calif.). Startle sessions consisted of a 5-minute adaptation period at a background noise level of 70±2 dBA immediately followed by 25 presentations of auditory stimuli (120±3 dBA noise, 50 ms duration) presented at 8-second intervals. Peak startle amplitudes were then averaged for all 25 presentations of stimuli for each session. Auditory startle responding was evaluated daily at 24 hour intervals on days 1-4 following drug withdrawal.
(§5) The compound of Example 141 was administered 60 minutes before startle testing at doses of 0, 10, 30, 60, or 100 mg/kg.

[2] = Auditory startle response, benzodiazepine (diazepam) withdrawal; type: in vivo, Male Long Evans rats; details: for benzodiazepine withdrawal-induced increase in sensory responsiveness: 60 minutes before startle testing, days 1-4
From the text: as §1, §2, §3, §4, §5

[3] = biological target: T1, brain CCK receptor (Mus musculus, UniProt P56481); test: CCK receptor binding, mouse brain membranes (125I-CCK-8 sulfate)
T1 construct: from tissue; host or cells: forebrain membranes of male CF-1 mice
T1 sequence (P56481 1-453): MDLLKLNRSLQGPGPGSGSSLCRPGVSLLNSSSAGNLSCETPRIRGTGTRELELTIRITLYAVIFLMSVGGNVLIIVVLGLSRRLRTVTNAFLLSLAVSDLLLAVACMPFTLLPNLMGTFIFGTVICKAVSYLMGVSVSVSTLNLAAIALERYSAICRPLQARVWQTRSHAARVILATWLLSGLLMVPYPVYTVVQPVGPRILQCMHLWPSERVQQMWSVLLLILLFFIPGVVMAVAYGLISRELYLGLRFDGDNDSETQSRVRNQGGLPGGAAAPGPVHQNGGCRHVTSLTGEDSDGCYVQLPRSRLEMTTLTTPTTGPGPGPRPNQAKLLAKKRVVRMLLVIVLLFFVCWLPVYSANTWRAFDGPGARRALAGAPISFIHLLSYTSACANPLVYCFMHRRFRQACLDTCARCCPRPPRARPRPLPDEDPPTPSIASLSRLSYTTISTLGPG

[4] = Catalepsy bar test; type: in vivo, Male Sprague-Dawley rats
Description: Acute administration of classical antipsychotic drugs results in catalepsy. Production of catalepsy is thought to be predictive of Parkinson-like extrapyramidal side effects. Sanberg, et al., Neuroscience 102:748-759 (1988). […] Haloperidol, a classical anti-psychotic, was used as a reference.
Male Sprague-Dawley rats (290-350 g) were used in these studies. Catalepsy was evaluated using the bar test (Sanberg et al., Neurosci., 102,748-759, (1988); Ferre, et al., Pharm. Biochem. Beh., 35, 753-757 (1990). The bar apparatus consisted of a horizontal metal rod with a diameter of 1 cm, which was positioned 10 cm from the floor to the top of the bar. The animal was gently placed in front of the bar, and then its forepaws were lifted to rest on the bar. The length of time, in seconds, until both forepaws touched the floor (3 minutes maximum allowed) was recorded. A baseline measurement was taken prior to injection, and catalepsy was evaluated every 60 minutes for three hours after injection of the compounds (Table IV). In a separate set of experiments, the compounds of this invention were administered 60 minutes prior to the administration of haloperidol, and catalepsy was evaluated every 60 minutes for three hours after the haloperidol injection. Catalepsy scores of drug-treated animals were compared to haloperidol- or vehicle-treated animals at each time point using the analysis of variance (ANOVA) (Table V). Haloperidol (Research Biochemicals Inc.) was dissolved in distilled water and a small amount of 0.1N lactic acid. The compounds of this invention were prepared in 50% ethanol. The volume of all injections was 1 ml/kg.

[5] = biological target: T2, peripheral type CCK receptors in rat pancreas (Rattus norvegicus, UniProt P30551); test: Binding to peripheral type CCK receptors in rat pancreas (3H-L-364,718); details: at 10 μM; read-out: Pancreas Percent Inhibition
T2 construct: Pancreas was obtained from male Sprague-Dawley rats; from tissue; host or cells: pancreas membranes of male Sprague-Dawley rats
T2 sequence (P30551 1-444): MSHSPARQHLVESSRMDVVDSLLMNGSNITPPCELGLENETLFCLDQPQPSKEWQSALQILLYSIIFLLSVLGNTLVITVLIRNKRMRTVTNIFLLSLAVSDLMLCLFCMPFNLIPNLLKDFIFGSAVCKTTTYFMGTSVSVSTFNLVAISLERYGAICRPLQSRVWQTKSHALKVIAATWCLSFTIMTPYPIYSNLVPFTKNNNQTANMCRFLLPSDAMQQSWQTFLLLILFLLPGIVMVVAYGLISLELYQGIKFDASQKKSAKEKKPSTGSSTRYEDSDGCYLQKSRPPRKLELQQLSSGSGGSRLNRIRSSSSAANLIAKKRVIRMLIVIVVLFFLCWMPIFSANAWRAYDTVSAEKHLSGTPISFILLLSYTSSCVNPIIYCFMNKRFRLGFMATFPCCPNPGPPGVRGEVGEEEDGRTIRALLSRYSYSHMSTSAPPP
In short: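 Washed pancreatic membranes from male Sprague-Dawley rats (150-200 g) incubated 1 h at room temperature with 0.4-0.6 nM ³H-L-364,718 in 50 mM Tris pH 7.4, 5 mM MgCl2, bacitracin, 5 mM DTT. Bound radioactivity counted after filtration; nonspecific binding defined with 100 nM L-364,718; IC50 determined.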

[6] = CCK-induced colonic motility in anesthetized ferrets; type: in vivo, male ferrets
Description: (§6) Experiments were performed on fasted (18 hour) male ferrets weighing 0.8-1.5 kilograms (Triple F Supplier) and water was given ad lib. Anesthesia was induced with urethane (0.2 ml/100 grams body weight j.p., Sigma Chemical Company), a tracheal tube was inserted to provide a clear airway for spontaneous breathing and the body temperature was maintained at 38° using a homeothermic blanket (Harvard Apparatus). The left jugular vein was cannulated (PE-50, i.d. 0.58 mm, o.d. 0.97 mm) for the subsequent administration of drugs and the left carotid artery was cannulated (PE-90, i.d. 0.86 mm, o.d. 1.277 mm) for the continual measurement of blood pressure and heart rate. Following a laporatomy, a catheter (PE-50) was inserted into the gall bladder through the bile duct and connected via a pressure transducer to a chart recorder for the visual display. The colon was located and a strain gauge transducer was sutured in the circular muscle direction to monitor contractile state. Before each experiment the blood pressure, heart rate and all motility recording transducers were calibrated for subsequent recording of data.
Following a 30 minute stabilization period, cholecystokinin 8-sulfated (CCK8-S) was given at doses of 100, 300 and 700 ng/kg intravenously (iv), with a 10 minute stabilization period in between CCK8-S doses. […]

[7] = CCK-induced gall bladder emptying in anesthetized ferrets; type: in vivo, male ferrets
Description: as §6
Following a 30 minute stabilization period, cholecystokinin 8-sulfated (CCK8-S) was given at doses of 100, 300 and 700 ng/kg intravenously (iv), with a 10 minute stabilization period in between CCK8-S doses. The test compound was administered (iv) after another 30 minute stabilization period, and the CCK8-S dose-response curve was repeated five minutes later.
Test compound vehicle was 3 drops of DMSO (99.9%), 0.5 ml 0.1N NaOH, saline.

[8] = Block of haloperidol-induced catalepsy, bar test; type: in vivo, Male Sprague-Dawley rats; details: vehicle pretreatment, then Hal
Description: Further, compounds of this invention were evaluated for their ability to block haloperidol-induced catalepsy. […] More preferredly, R and R^1 are trans.
Male Sprague-Dawley rats (290-350 g) were used in these studies. […] In a separate set of experiments, the compounds of this invention were administered 60 minutes prior to the administration of haloperidol, and catalepsy was evaluated every 60 minutes for three hours after the haloperidol injection. Catalepsy scores of drug-treated animals were compared to haloperidol- or vehicle-treated animals at each time point using the analysis of variance (ANOVA) (Table V). Haloperidol (Research Biochemicals Inc.) was dissolved in distilled water and a small amount of 0.1N lactic acid. The compounds of this invention were prepared in 50% ethanol. The volume of all injections was 1 ml/kg.

CN1CCC[C@H]1c1cccnc1 [nicotine, reference compound]
auditory startle response after cessation of chronic nicotine ([1]; 6 mg kg base/day, minipump, twelve days, withdrawal): significantly increased auditory startle responses

CN1C(=O)CN=C(c2ccccc2)c2cc(Cl)ccc21 [diazepam, reference compound]
auditory startle response after cessation of chronic diazepam ([2]; 20 mg/kg/day, minipump, twelve days, withdrawal): significantly increased auditory startle responses

O=C1NN(C(=O)Nc2ccc(Br)cc2)[C@@H](c2ccccc2)[C@@H]1c1ccccc1 (single isomer, unassigned) [Example 141, (+)-trans-1-[(4-Bromophenyl)aminocarbonyl]-4,5-diphenyl-3pyrazolidinone]
pIC50 ([3]; mouse brain membranes, read-out: Brain IC50): 7.80 | Catalepsy Score ([4]; 10 mg/kg, 60 Min): 3.8 ± 0.9 s | Catalepsy Score ([4]; 10 mg/kg, 120 Min): 3.3 ± 1.2 s | Catalepsy Score ([4]; 10 mg/kg, 180 Min): 4.6 ± 2.1 s | Catalepsy Score ([4]; 10 mg/kg, Pre): 1.1 ± 0.2 s | Catalepsy Score ([4]; 30 mg/kg, 60 Min): 2.6 ± 1.1 s | Catalepsy Score ([4]; 30 mg/kg, 120 Min): 2.0 ± 0.6 s | Catalepsy Score ([4]; 30 mg/kg, 180 Min): 4.9 ± 1.9 s | Catalepsy Score ([4]; 30 mg/kg, Pre): 1.5 ± 0.3 s | benzodiazepine withdrawal-induced increase in sensory responsiveness ([2]; 60 mg/kg): significantly reduced the benzodiazepine withdrawal-induced increase in sensory responsiveness on all days examined | benzodiazepine withdrawal-induced increase in sensory responsiveness ([2]; 100 mg/kg): significantly reduced the benzodiazepine withdrawal-induced increase in sensory responsiveness on all days examined | nicotine withdrawal-induced increase in startle response ([1]; 10 mg/kg, days 1-4): significantly reduced the nicotine withdrawal-induced increase in startle response on all days except day 4 | nicotine withdrawal-induced increase in sensory responsiveness ([1]; 30 mg/kg, days 1-4): significantly reduced the nicotine withdrawal-induced increase in sensory responsiveness on all days examined | nicotine withdrawal-induced increase in sensory responsiveness ([1]; 60 mg/kg, days 1-4): significantly reduced the nicotine withdrawal-induced increase in sensory responsiveness on all days examined

O=C1NN(C(=O)Nc2ccccc2)[C@@H](c2ccccc2)[C@@H]1c1ccccc1 (racemic) [Example 15, (±)-trans-1-phenylaminocarbonyl-4,5-diphenyl-3-pyrazolidinone]
inhibition at 10 µM ([3]; at 10 μM, read-out: Brain Percent Inhibition): 69% | inhibition at 10 µM [5]: 10% | inhibition of CCK-induced colonic motility ([6]; 1 mg/kg iv, CCK 300 ng/kg): 57% | inhibition of colonic motility ([6]; CCK-8 100 ng/kg): ~75% | gall bladder emptying ([7]; 1 mg/kg iv, CCK 300 ng/kg): not measurably altered | alteration of CCK-induced gall bladder emptying ([7]; CCK-8 100 ng/kg): about 10% | effect on CCK-induced gall bladder emptying ([7]; in words): without affecting CCK-induced gall bladder emptying

O=C(CCCN1CCC(O)(c2ccc(Cl)cc2)CC1)c1ccc(F)cc1 [Haloperidol]
Catalepsy Score ([4]; 0.25 mg/kg, 60 Min): 2.2 ± 0.3 s | Catalepsy Score ([4]; 0.25 mg/kg, 120 Min, * P < 0.001 vs vehicle): 9.9 ± 2.7 s | Catalepsy Score ([4]; 0.25 mg/kg, 180 Min, * P < 0.001 vs vehicle): 23.1 ± 4.9 s | Catalepsy Score ([4]; 0.25 mg/kg, Pre): 1.8 ± 1.1 s | Catalepsy Score ([4]; 0.5 mg/kg, 60 Min): 3.3 ± 1.7 s | Catalepsy Score ([4]; 0.5 mg/kg, 120 Min, * P < 0.001 vs vehicle): 17.6 ± 2.2 s | Catalepsy Score ([4]; 0.5 mg/kg, 180 Min, * P < 0.001 vs vehicle): 33.5 ± 8.3 s | Catalepsy Score ([4]; 0.5 mg/kg, Pre): 0.9 ± 0.2 s | Catalepsy Score ([4]; 1.0 mg/kg, 60 Min, * P < 0.001 vs vehicle): 10.6 ± 6.3 s | Catalepsy Score ([4]; 1.0 mg/kg, 120 Min, * P < 0.001 vs vehicle): 100.0 ± 46.2 s | Catalepsy Score ([4]; 1.0 mg/kg, 180 Min, * P < 0.001 vs vehicle): 123.9 ± 39.7 s | Catalepsy Score ([4]; 1.0 mg/kg, Pre): 1.2 ± 0.4 s | Catalepsy Score ([8]; 60 Min): 9.72 ± 2.1 s | Catalepsy Score ([8]; 120 Min): 27.42 ± 6 s | Catalepsy Score ([8]; 180 Min): 30.61 ± 6.4 s | Catalepsy Score ([8]; Pre): 3.12 ± 0.61 s
